Data as given in patent publication US20190152946A1, “Novel Compounds” (GlaxoSmithKline Intellectual Property Development Limited, priority 2016, published 2019).

Legend:
Format in all cases: cell-based
BTK = biological target: T1, BTK (Homo sapiens, UniProt Q06187); assay: Expression proteomics in THP-1 cells, BTK level; conditions: BTK protein log2 fold change, 24 h, 1.0 μM
T1 construct: endogenous in cells; host or cells: THP-1
Description: (§1) THP-1 cells were seeded at a concentration of 3×10^6 cells in T175 flasks with 60 mL growth medium (RPM11640+10% FBS). […] of a 10× compound solution prepared in growth medium (DMSO), IAP PROTAC) was added and the cells were treated for the indicated time points (6 or 24 h) at 37° C., 5% CO2. For harvesting the cells were collected into falcon tubes on ice, centrifuged and washed twice in cold PBS (Life technologies). After the last washing step the supernatant was removed and the pellets were snap-frozen in liquid N2 and stored at −80° C. and lysed in 2% SDS for 3 min at 95° C. in a thermomixer (Thermo Fisher Scientific), followed by digestion of DNA with Benzonase at 37° C. for 1.5 h. Lysate was cleared by centrifugation an protein concentration in supernatant was determined by BCA assay.
(§2) Leukemia 25, 89-100 (2011).
(§3) Samples were dried in vacuo and resuspended in 0.05% trifluoroacetic acid in water. […]
(§4) Reporter ion intensities were read from raw data and multiplied with ion accumulation times (the unit is milliseconds) so as to yield a measure proportional to the number of ions;
(§5) Nat Biotech 29, 255-265 (2011). this measure is referred to as ion area Savitski, M. M. et al. Delayed Fragmentation and Optimized Isolation Width Settings for Improvement of Protein Identification and Accuracy of Isobaric Mass Tag Quantification on Orbitrap-Type Mass Spectrometers. […]

PTK2 = biological target: T2, PTK2 (Homo sapiens, UniProt Q05397); assay: Expression proteomics in THP-1 cells, PTK2 level; conditions: PTK2 protein log2 fold change, 24 h, 1.0 μM
T2 construct: endogenous in cells; host or cells: THP-1
Description: as §1, §2, §3, §4, §5

IRAK3 = biological target: T3, IRAK3 (Homo sapiens, UniProt Q9Y616); assay: Expression proteomics in THP-1 cells, IRAK3 level; conditions: IRAK3 protein log2 fold change, 24 h, 1.0 μM
T3 construct: endogenous in cells; host or cells: THP-1
T3 sequence (Q9Y616 1-596): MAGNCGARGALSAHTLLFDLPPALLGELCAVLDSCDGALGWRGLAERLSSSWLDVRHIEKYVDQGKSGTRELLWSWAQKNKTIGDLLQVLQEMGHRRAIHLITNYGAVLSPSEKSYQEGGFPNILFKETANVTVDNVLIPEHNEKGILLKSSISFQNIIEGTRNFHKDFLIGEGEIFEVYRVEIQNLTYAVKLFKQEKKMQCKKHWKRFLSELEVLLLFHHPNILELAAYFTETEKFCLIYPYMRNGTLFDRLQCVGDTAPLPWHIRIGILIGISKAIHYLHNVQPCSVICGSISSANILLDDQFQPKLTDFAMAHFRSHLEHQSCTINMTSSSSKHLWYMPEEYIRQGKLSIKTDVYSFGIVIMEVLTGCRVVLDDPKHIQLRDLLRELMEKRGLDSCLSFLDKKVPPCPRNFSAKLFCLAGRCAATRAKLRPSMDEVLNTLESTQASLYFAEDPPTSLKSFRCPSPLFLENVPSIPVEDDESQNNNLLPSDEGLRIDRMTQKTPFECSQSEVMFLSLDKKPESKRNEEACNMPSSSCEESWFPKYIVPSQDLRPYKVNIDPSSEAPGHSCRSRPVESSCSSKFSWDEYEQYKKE
Description: as §1, §2, §3, §4, §5

MAPK9 = biological target: T4, MAPK9 (Homo sapiens, UniProt P45984); assay: Expression proteomics in THP-1 cells, MAPK9 level; conditions: MAPK9 protein log2 fold change, 24 h, 1.0 μM
T4 construct: endogenous in cells; host or cells: THP-1
Description: as §1, §2, §3, §4, §5

T4 sequence (P45984 whole entry): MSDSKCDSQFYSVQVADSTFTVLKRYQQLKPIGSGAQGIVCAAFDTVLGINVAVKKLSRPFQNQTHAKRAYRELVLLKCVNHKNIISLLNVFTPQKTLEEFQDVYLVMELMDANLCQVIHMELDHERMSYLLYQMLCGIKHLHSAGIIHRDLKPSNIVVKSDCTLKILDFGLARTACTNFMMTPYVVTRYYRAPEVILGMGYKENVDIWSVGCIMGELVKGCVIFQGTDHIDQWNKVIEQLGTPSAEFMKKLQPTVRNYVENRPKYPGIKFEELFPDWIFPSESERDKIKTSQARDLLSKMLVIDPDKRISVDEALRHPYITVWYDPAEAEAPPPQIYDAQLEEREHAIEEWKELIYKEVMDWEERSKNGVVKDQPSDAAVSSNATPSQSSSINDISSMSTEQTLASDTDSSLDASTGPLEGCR
T2 sequence (Q05397 whole entry): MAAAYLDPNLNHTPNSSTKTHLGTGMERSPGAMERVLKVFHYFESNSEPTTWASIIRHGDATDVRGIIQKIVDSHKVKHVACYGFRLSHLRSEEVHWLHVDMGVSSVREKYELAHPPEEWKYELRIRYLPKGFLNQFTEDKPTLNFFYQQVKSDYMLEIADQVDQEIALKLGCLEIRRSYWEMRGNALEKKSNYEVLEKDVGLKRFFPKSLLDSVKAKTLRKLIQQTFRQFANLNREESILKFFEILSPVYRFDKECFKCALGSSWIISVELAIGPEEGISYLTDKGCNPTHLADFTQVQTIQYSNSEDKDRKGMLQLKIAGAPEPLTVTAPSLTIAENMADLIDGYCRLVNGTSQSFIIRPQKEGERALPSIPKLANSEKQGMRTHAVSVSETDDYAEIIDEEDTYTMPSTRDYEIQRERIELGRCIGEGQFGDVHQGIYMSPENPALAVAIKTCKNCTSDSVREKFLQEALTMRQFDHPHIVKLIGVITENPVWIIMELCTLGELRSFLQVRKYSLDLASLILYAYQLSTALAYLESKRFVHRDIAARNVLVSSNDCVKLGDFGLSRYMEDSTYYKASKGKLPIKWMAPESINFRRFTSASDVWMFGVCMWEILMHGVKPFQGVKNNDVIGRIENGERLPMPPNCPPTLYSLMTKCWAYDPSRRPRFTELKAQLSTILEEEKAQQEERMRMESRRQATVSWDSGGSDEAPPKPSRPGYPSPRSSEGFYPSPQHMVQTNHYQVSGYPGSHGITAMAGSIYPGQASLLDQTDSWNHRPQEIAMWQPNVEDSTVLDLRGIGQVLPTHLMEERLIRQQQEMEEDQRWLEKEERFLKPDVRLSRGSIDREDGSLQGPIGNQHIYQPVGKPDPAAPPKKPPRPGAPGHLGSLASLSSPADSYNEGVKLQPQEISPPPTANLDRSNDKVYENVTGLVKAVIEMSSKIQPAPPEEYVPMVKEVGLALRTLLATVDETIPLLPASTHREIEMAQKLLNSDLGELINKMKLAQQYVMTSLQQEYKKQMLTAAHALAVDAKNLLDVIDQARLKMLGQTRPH
T1 sequence (Q06187 whole entry): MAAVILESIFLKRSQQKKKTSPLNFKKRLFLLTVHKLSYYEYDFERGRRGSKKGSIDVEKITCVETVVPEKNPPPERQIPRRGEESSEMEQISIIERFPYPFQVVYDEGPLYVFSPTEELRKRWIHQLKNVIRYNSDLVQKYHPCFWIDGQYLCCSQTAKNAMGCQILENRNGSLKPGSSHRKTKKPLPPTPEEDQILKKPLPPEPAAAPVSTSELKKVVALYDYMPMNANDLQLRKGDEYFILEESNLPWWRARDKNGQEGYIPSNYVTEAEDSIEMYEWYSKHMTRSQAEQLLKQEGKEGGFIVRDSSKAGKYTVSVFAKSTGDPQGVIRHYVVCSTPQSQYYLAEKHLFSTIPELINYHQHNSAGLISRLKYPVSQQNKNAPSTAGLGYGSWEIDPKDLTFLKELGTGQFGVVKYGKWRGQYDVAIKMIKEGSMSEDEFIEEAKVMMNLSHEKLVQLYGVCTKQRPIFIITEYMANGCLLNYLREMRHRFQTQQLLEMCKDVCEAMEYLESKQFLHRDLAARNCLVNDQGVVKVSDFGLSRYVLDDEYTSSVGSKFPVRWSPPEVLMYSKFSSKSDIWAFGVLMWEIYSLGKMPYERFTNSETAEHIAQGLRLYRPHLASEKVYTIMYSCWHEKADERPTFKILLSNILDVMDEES

- log2fc_IAP_24 h_1.0 μM_n1 (BTK; replicate n1): −1.53
- log2fc_IAP_24 h_1.0 μM_n2 (BTK; replicate n2): −1.66
- log2fc_IAP_24 h_1.0 μM_n1 (PTK2; replicate n1): −0.90
- log2fc_IAP_24 h_1.0 μM_n2 (PTK2; replicate n2): −1.00
- log2fc_IAP_24 h_1.0 μM_n1 (IRAK3; replicate n1): −2.28
- log2fc_IAP_24 h_1.0 μM_n2 (IRAK3; replicate n2): −2.47
- log2fc_IAP_24 h_1.0 μM_n1 (MAPK9; replicate n1): −1.22
- log2fc_IAP_24 h_1.0 μM_n2 (MAPK9; replicate n2): −1.31
Compound: CNC(=O)c1ccccc1Nc1nc(Nc2ccc(N3CCN(CCOCCOCCOCCOc4ccc5c(c4)CN(C(=O)[C@@H](NC(=O)[C@H](C)NC)C(C)(C)C)[C@H](C(=O)N[C@@H]4CCCc6ccccc64)C5)CC3)cc2)ncc1Cl [IAP, (S)-7-(2-(2-(2-(2-(4-(4-((5-Chloro-4-((2-(methylcarbamoyl)phenyl)amino)pyrimidin-2-yl)amino)phenyl)piperazin-1-yl)ethoxy)ethoxy)ethoxy)ethoxy)-2-((S)-3,3-dimethyl-2-((S)-2-(methylamino)propanamido)butanoyl)-N-((R)-1,2,3,4-tetrahydronaphthalen-1-yl)-1,2,3,4-tetrahydroisoquinoline-3-carboxamide]
